ChEMBL document CHEMBL5113460, “Discovery of dual inhibitors of topoisomerase I and Cyclooxygenase-2 for colon cancer therapy” (Eur J Med Chem, 2022)
Active and inactive are the calls of the source. The calls are words filed in the database; no cut-off is given here.

Key:
HT-29 [1] = assay: Antitumor activity against human HT-29 cells xenografted in BALB/c mouse assessed as tumor necrosis at 15 to 30 mg/kg, ip bid for 14 days by hematoxylin-eosin staining analysis; assay type: functional, organism-based; conditions: dose 15-30 mg/kg, time 14.0 day
RKO [2] = assay: Induction of apoptosis in human RKO cells assessed as increase in cytochrome c protein level at 3 to 9 uM incubated for 24 hrs by western blot analysis; assay type: functional, cell-based; conditions: dose 3-9 µM
LoVo = assay: Antitumor activity against human LoVo cells assessed as inhibition of cell proliferation incubated for 72 hrs by MTT assay; assay type: functional, cell-based
RKO [3] = assay: Induction of DNA damage in human RKO cells assessed as increase in tail length at 3 to 9 uM incubated for 24 hrs by Comet assay; assay type: functional, cell-based; conditions: dose 3-9 µM
HT-29 [4] = assay: Induction of apoptosis in human HT-29 cells assessed as late apoptotic cells at 2 uM incubated for 24 hr by Annexin-V-FITC/PI staining based flow cytometry (Rvb=8.60%); assay type: functional
RKO [5] = assay: Induction of apoptosis in human RKO cells assessed as early apoptotic cells at 3 uM incubated for 24 hr by Annexin-V-FITC/PI staining based flow cytometry (Rvb= 7.27%); assay type: functional
HT-29 [6] = assay: Antitumor activity against human HT-29 cells xenografted in BALB/c mouse assessed as inhibition of tumor microvessel density by measuring CD31-index at 30 mg/kg, ip bid for 14 days by immunohistochemical analysis; assay type: functional; conditions: time 14 day
HT-29 [7] = assay: Induction of apoptosis in human HT-29 cells assessed as necrotic cells at 2 uM incubated for 24 hr by Annexin-V-FITC/PI staining based flow cytometry (Rvb=1.67%); assay type: functional
RKO [8] = assay: Induction of apoptosis in human RKO cells assessed as viable cells at 9 uM incubated for 24 hr by Annexin-V-FITC/PI staining based flow cytometry (Rvb= 87.9%); assay type: functional; conditions: read-out: Activity
HT-29 [9] = assay: Induction of apoptosis in human HT-29 cells assessed as early apoptotic cells at 4 uM incubated for 24 hr by Annexin-V-FITC/PI staining based flow cytometry (Rvb=6.25%); assay type: functional
RKO [10] = assay: Induction of apoptosis in human RKO cells assessed as viable cells at 6 uM incubated for 24 hr by Annexin-V-FITC/PI staining based flow cytometry (Rvb= 87.9%); assay type: functional; conditions: read-out: Activity
[11] = Half life in Sprague-Dawley rat at 30 mg/kg, po and measured upto 12 hrs by LC-MS analysis; assay type: ADME, organism-based; conditions: in vivo
RKO [12] = assay: Induction of apoptosis in human RKO cells assessed as increase in Bax protein level at 3 to 9 uM incubated for 24 hrs by western blot analysis; assay type: functional, cell-based; conditions: dose 3-9 µM

Cc1c(Cl)cccc1Nc1ccccc1C(=O)Nc1ccc(N2CCNCC2)cc1
Activity (HT-29 [1]): Active
Activity (RKO [2]): Active
IC50 (LoVo): 4.89 µM
Activity (RKO [3]): Active
Activity (HT-29 [4]): 11%
Activity (RKO [5]): 6.88%
Inhibition_index (HT-29 [6]): 6
Activity (HT-29 [7]): 1.49%
viability at 9 µM (RKO [8]): 65.6%
Activity (HT-29 [9]): 4.95%
viability at 6 µM (RKO [10]): 81.9%
half-life [11]: 4.27 h
Activity (RKO [12]): Active
